According to patent publication US20220127281A1, “HETEROARYL COMPOUNDS THAT INHIBIT G12C MUTANT RAS PROTEINS” (AstraZeneca AB, priority 2017, published 2022):
Like-named read-outs stand apart in the source and are kept apart here.

Legend:
[1] = target: T1, GDP loaded biotinylated KRas^G12C protein (Homo sapiens, UniProt P01116, G12C); assay: KRasG12C functional assay; format: biochemical; details: HTRF FRET readout of SOS-mediated nucleotide exchange and GST-Raf RBD binding, samples incubated for 4 hrs
T1 construct: biotin (biotinylated); made in house
Experimental: KRasG12C Functional Assay
All enzyme and substrate solutions were prepared in assay buffer containing 20 mM HEPES (pH 7.5), 5 mM MgCl2, 150 mM NaCl, and 0.01% Tween 20. […] In a separate mix 20 nM GST-Raf Ras binding domain (GST-Raf RBD, purified in house) and 4 μg/ml anti-GST XL665 antibody (Cisbio) was prepared in assay buffer containing 50 mM Potassium Fluoride and 0.05 mg/ml BSA and equilibrated for 4 hours before adding 0.6 μM Guanosine 5′-[γ-thio]triphosphate (GTPγS, Sigma) and 0.08 μM SOS (purified in house). 5 μl of the GST-RAF RBD mix was then dispensed into each well of the assay plate. […] This is detected simultaneously via the specific binding interaction between active GTPγS KRas^G12C with GST-Raf RBD which brings the europium and XL665 into close proximity enabling an increased FRET signal to be detected on a Pherastar (BMG) plate reader equipped with the HTRF filter module. […] IC50 values were calculated from normalised dose-response response FRET data curve fitted in Genedata screener (Basel, Switzerland).

[2] = target: T1, GDP loaded biotinylated KRas^G12C protein; assay: KRasG12C mass spectrometry adducting assay; format: binding; details: test compound final concentration 10 μM, 4 μM KRasG12C, react for 4 hours
Experimental: KRasG12C Mass Spectrometry Adducting Assay
Enzyme solutions were prepared in assay buffer containing 20 mM HEPES (pH 7.5), 5 mM MgCl2, and 150 mM NaCl. […] The plate was sealed before reading on a Xevo G2 QTOF (Waters) and Acquity LC system (Waters). […] Blank samples were run in between each test sample.
Data was analysed in Mass Lynx software (Waters), the Total ion count (TIC) trace was used and the eluted protein peak data combined. Using the combined spectrum the data was deconvoluted using MaxEnt1 method. The peak area for apo-protein KRas^G12C (APO) and KRAS+relative cmpd mass (adduct) were measured, and a percentage adduct was calculated using the following calculation:
Percent adduct=100*(area of adduct peak/(sum of APO+adduct peaks)

[3] = KRasG12C functional assay IC50 value (μM)
[4] = read-out: KRasG12C functional assay IC50 value

T1 sequence (P01116 1-188 isoform P01116-2 G12C): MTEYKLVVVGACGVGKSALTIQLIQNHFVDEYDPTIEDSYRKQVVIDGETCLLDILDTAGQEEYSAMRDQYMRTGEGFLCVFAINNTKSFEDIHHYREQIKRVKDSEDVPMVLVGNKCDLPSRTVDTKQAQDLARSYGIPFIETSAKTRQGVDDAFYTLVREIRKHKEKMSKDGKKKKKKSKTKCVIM

Compound	IC50 [1, 3]	KRasG12C M.S. Binding Mean adduct % [2]	IC50 [1, 4]
C=CC(=O)N1CCN2c3ncnc4cc(-c5c(C)ccc6[nH]ncc56)c(Cl)c(c34)OC[C@@H]2C1 (single isomer, unassigned) [Example 2]	38.9 µM	2%	
C=CC(=O)N1CCN2c3ncnc4cc(-c5c(C)ccc6[nH]ncc56)c(Cl)c(c34)OC[C@@H]2C1 (single isomer, unassigned) [Example 3]	0.082 µM	96%	
C=CC(=O)N1CCN2c3ncnc4cc(-c5c(O)cccc5F)c(Cl)c(c34)OC[C@@H]2C1 (single isomer, unassigned) [Example 10]		30%	0.244 µM
C=CC(=O)N1CCN2c3ncnc4cc(-c5c(O)cccc5F)c(Cl)c(c34)OC[C@@H]2C1 (single isomer, unassigned) [Example 11]		92%	0.097 µM
C=CC(=O)N1CCN2c3ncnc4cc(-c5c(O)cccc5Cl)c(Cl)c(c34)OC[C@@H]2C1 (single isomer, unassigned) [Example 15]		12%	22.7 µM
C=CC(=O)N1CCN2c3ncnc4cc(-c5c(O)cccc5Cl)c(Cl)c(c34)OC[C@@H]2C1 (single isomer, unassigned) [Example 16]		100%	0.032 µM
C=CC(=O)N1CCN2c3ncnc4cc(-c5c(O)cccc5OC)c(Cl)c(c34)OC[C@@H]2C1 (single isomer, unassigned) [Example 17]		0%	> 100 µM
C=CC(=O)N1CCN2c3ncnc4cc(-c5c(O)cccc5OC)c(Cl)c(c34)OC[C@@H]2C1 (single isomer, unassigned) [Example 18]		100%	0.868 µM
C=CC(=O)N1CCN2c3ncnc4cc(-c5c(O)cccc5C#N)c(Cl)c(c34)OC[C@@H]2C1 (single isomer, unassigned) [Example 19]		0%	41.8 µM
C=CC(=O)N1CCN2c3ncnc4cc(-c5c(O)cccc5C#N)c(Cl)c(c34)OC[C@@H]2C1 (single isomer, unassigned) [Example 20]		100%	0.191 µM
C=CC(=O)N1CCN2c3nc(N4CCOCC4)nc4cc(-c5c(C)ccc6[nH]ncc56)c(Cl)c(c34)OC[C@@H]2C1 (single isomer, unassigned) [Example 71]		83%	0.226 µM
C=CC(=O)N1CCN2c3nc(N4CCOCC4)nc4cc(-c5c(C)ccc6[nH]ncc56)c(Cl)c(c34)OC[C@@H]2C1 (single isomer, unassigned) [Example 72]		5%	39.4 µM
C=CC(=O)N1CCN2c3nc(NC4CCN(C5CC5)CC4)nc4cc(-c5c(C)ccc6[nH]ncc56)c(Cl)c(c34)OC[C@@H]2C1 (single isomer, unassigned) [Example 73]		8%	1.9 µM
C=CC(=O)N1CCN2c3nc(NC4CCN(C5CC5)CC4)nc4cc(-c5c(C)ccc6[nH]ncc56)c(Cl)c(c34)OC[C@@H]2C1 (single isomer, unassigned) [Example 74]		94%	0.012 µM
C=CC(=O)N1CCN2c3nc(N4CC(N(C)C)C4)nc4cc(-c5c(C)ccc6[nH]ncc56)c(Cl)c(c34)OC[C@@H]2C1 (single isomer, unassigned) [Example 76]		0%	22.4 µM
C=CC(=O)N1CCN2c3nc(N4CC(N(C)C)C4)nc4cc(-c5c(C)ccc6[nH]ncc56)c(Cl)c(c34)OC[C@@H]2C1 (single isomer, unassigned) [Example 77]		100%	0.021 µM
C=CC(=O)N1CCN2c3nc(NCCN(C)C)nc4cc(-c5c(C)ccc6[nH]ncc56)c(Cl)c(c34)OC[C@@H]2C1 (single isomer, unassigned) [Example 79]		0%	1.72 µM
C=CC(=O)N1CCN2c3nc(NCCN(C)C)nc4cc(-c5c(C)ccc6[nH]ncc56)c(Cl)c(c34)OC[C@@H]2C1 (single isomer, unassigned) [Example 80]		90%	0.018 µM
C=CC(=O)N1CCN2c3ncnc4cc(-c5c(C)ccc6[nH]ncc56)c(Cl)c(c34)OCC[C@@H]2C1 (single isomer, unassigned) [Example 81]		100%	0.012 µM
C=CC(=O)N1CCN2c3ncnc4cc(-c5c(C)ccc6[nH]ncc56)c(Cl)c(c34)OCC[C@@H]2C1 (single isomer, unassigned) [Example 82]		26%	0.166 µM
C=CC(=O)N1CCN2c3ncnc4cc(-c5c(C)ccc6[nH]ncc56)c(Cl)c(c34)OC[C@@H]2C1 [Example 1, 1-[(8aS)-6-Chloro-5-(5-methyl-1H-indazol-4-yl)-8a,9,11,12-tetrahydropyrazino-[2′,1′:3,4][1,4]oxazepino[5,6,7-de]quinazolin-10 (8H)-yl]-2-propen-1-one]	0.102 µM	95%	
Cc1ccc2[nH]ncc2c1-c1cc2ncnc3c2c(c1Cl)OC[C@@H]1CN(C(=O)/C=C/CN(C)C)CCN31 [Example 4, (E)-1-((8aS)-6-Chloro-5-(5-methyl-1H-indazol-4-yl)-8a,9,11,12-tetrahydropyrazino[2′,1′:3,4][1,4]oxazepino[5,6,7-de]quinazolin-10 (8H)-yl)-4-(dimethylamino)but-2-en-1-one]		74%	0.518 µM
C=CC(=O)N1CCN2c3ncnc4cc(-c5c(C)ccc6[nH]ncc56)cc(c34)OC[C@@H]2C1 [Example 5, 1-[(8aS)-5-(5-Methyl-1H-indazol-4-yl)-8a,9,11,12-tetrahydropyrazino[2′,1′:3,4][1,4]-oxazepino[5,6,7-de]quinazolin-10 (8H)-yl]prop-2-en-1-one]		91%	0.798 µM
C=CC(=O)N1CCN2c3ncnc4cc(-c5c(C)ccc6[nH]ncc56)cc(c34)OC[C@H]2C1 [Example 6, 1-[(8aR)-5-(5-Methyl-1H-indazol-4-yl)-8a,9,11,12-tetrahydropyrazino[2′,1′:3,4]-[1,4]oxazepino[5,6,7-de]quinazolin-10 (8H)-yl]prop-2-en-1-one]		68%	2.37 µM
C=CC(=O)N1CCN2c3ncnc4cc(-c5c(C)ccc6[nH]ncc56)c(Cl)c(c34)OC[C@H]2C1 [Example 7, 1-[(8aR)-6-Chloro-5-(5-methyl-1H-indazol-4-yl)-8a,9,11,12-tetrahydropyrazino-[2′,1′:3,4][1,4]oxazepino[5,6,7-de]quinazolin-10 (8H)-yl]prop-2-en-1-one]	0.214 µM	95%	
C=CC(=O)N1CCN2c3ncnc4c(F)c(-c5c(O)cccc5F)c(Cl)c(c34)OC[C@@H]2C1 [Example 69, 1-((8aS)-6-chloro-4-fluoro-5-(2-fluoro-6-hydroxyphenyl)-8a,9,11,12-tetrahydro-pyrazino[2′,1′:3,4][1,4]oxazepino[5,6,7-de]quinazolin-10 (8H)-yl)prop-2-en-1-one]			0.029 µM
